The text below walks through data of patent US20230174521A1, “NOVEL DIACYLGLYCERIDE O-ACYLTRANSFERASE 2 INHIBITORS” (Merck Sharp & Dohme LLC, priority 2020, published 2023).

SMILES strings stand for the structures.

In the assay the target is T1, human DGAT2 (hDGAT2) (Homo sapiens, UniProt Q96PD7).
T1 construct: made in house; host or cells: Sf-9 insect cells (baculovirus infection); membrane fraction
T1 sequence (Q96PD7 1-388): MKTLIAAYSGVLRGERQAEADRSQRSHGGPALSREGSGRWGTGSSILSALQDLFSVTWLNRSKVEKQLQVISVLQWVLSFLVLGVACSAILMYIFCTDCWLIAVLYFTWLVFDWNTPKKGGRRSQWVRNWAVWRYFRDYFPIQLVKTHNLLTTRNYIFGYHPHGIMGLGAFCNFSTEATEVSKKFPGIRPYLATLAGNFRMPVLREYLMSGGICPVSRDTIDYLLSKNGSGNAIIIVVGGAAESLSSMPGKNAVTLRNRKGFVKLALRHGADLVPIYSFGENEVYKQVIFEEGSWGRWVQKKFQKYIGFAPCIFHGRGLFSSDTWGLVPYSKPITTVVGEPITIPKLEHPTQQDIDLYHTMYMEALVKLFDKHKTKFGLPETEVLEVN
Nature of the assay: DGAT2 enzymatic activity assay (LC/MS/MS detection of 13C18-triolein, Sf-9 membrane prep). In kind it is biochemical. Particulars: hDGAT2 Sf-9 membrane, 25 μM diolein, 5 μM 13C oleoyl-CoA, rt. The protocol:
Sf-9 insect cells were maintained in Grace's insect cell culture medium with 10% heated-inactivated fetal bovine serum, 1% Pluronic F-68 and 0.14 μg/ml Kanamycine sulfate at 27° C. in a shaker incubator. After infection with untagged baculovirus expressing human DGAT2 (hDGAT2) at multiplicity of infection (MOI) 3 for 48 hours, cells were harvested. Cell pellets were suspended in buffer containing 10 mM Tris-HCl pH 7.5, 1 mM EDTA, 250 mM sucrose and Complete Protease Inhibitor Cocktail (Sigma Aldrich), and sonicated on ice. Cell debris were removed by centrifugation at 2000×g for 15 minutes. Membrane fractions were isolated by ultracentrifugation (100,000×g), resuspended in the same buffer, and frozen (−80° C.) for later use. The protein concentration was determined with the Pierce™ BCA Protein Assay Kit (Thermo Fisher Scientific). Expression of protein levels was analyzed by immunoblotting with rabbit anti-DGAT2 antibody (Abcam, ab102831) and donkey anti-rabbit IgG H&L Alexa Fluor® 647 (Abcam, ab150075) followed by detection using Typhoon FLA9000 (GE Healthcare).
LC/MS/MS analyses were performed using Thermal Fisher's LX4-TSQ Vantage system. This system consists of an Agilent binary high-performance liquid chromatography (HPLC) pumps and a TSQ Vantage triple quadrupole MS/MS instrument. For each sample, 2 μL samples from the top organic layer of in-plate liquid-liquid extraction were injected onto a Thermo Betabasic C4 column (2.1 mm×20 mm, 5 μm particle size). The samples were then eluted using the following conditions; mobile phase: Isopropanol: acetonitrile/10 mM ammonium formate=50/35/15 (v/v/v), flow rate: 0.8 mL/min, temperature: 25° C. Data was acquired in positive mode using a heated electrospray ionization (HESI) interface. The operational parameters for the TSQ Vantage MS/MS instrument were a spray voltage of 3000 V, capillary temperature of 280° C., vaporizer temperature 400° C., sheath gas 45 arbitrary unit, Aux gas 10 arbitrary units, S-lens 165 and collision gas 1.0 mTorr. […] (SRM) chromatograms of ^13C18-triolein (Q1: 920.8>Q3:621.3) and internal standard ^13C21-triolein (Q1: 923.8>Q3:617.3) were collected for 33 sec. The peak area was integrated by Xcalibur Quan software. The ratio between the ^13C18triolein generated in the reaction and spiked in internal standard ^13C21-triolein was used to generate percentage inhibition and IC50 values. Compound percentage inhibition was calculated by the following formula: Inhibition %=1−[(compound response−low control)/(high control−low control)]×100%. Potent compounds were titrated and IC50 were calculated by 4 parameter sigmoidal curve fitting formula.
DGAT2 activity was determined by measuring the amount of enzymatic product ^13C18-triolein (^13C-1,2,3-Tri(cis-9-octadecenoyl)glycerol) using the membrane prep mentioned above. The assay was carried out in ABgene 384-well assay plates in a final volume of 25 μL at rt. The assay mixture contained the following: assay buffer (100 mM Tris.Cl, pH 7.0, 20 mM MgCl2, 5% ethanol), 25 μM of diolein, 5 μM of ^13C oleoyl-CoA and 8 ng/μL of DGAT2 membrane.
In turn, `Cc1c(C(=O)NC2(C)CS(=O)(=O)C2)ccc2c1c(C(C)C)nn2-c1cccc(OC(F)F)c1` [Example 20] came in with an IC50 of 5 nM.
As for `Cn1nccc1-c1nn(-c2cccc(OC(F)F)c2)c2ccc(C(=O)NC3(C)CS(=O)(=O)C3)cc12` [Example 1, 1-[3-(difluoromethoxy)phenyl]-N-(3-methyl-1,1-dioxo-thietan-3-yl)-3-(2-methylpyrazol-3-yl)indazole-5-carboxamide], the figure is 46 nM; as for `CC1(NC(=O)c2cnc3c(c2)c(C(C)(O)C(F)F)nn3-c2cccc(OC(F)F)c2)CS(=O)(=O)C1` (stereo not drawn) [Example 43, 3-(1,1-difluoro-2-hydroxypropan-2-yl)-1-(3 - (difluoromethoxy)phenyl)-N-(3-methyl-1,1-dioxidothietan-3-yl)-1H-pyrazolo[3,4-b]pyridine-5-carboxamide], 118 nM.
`CC(C)c1nn(-c2cccc(OC(F)F)c2)c2cnc(C(=O)NC3(C)CS(=O)(=O)C3)cc12` [Example 13] yielded an IC50 of 77 nM.
Then `C[C@]1(NC(=O)c2ccc3c(c2)c(N2CCOCC2)nn3-c2cccc(OC(F)F)c2)CCS(=O)(=O)C1` [Example 48, (S)-1-[3-(difluoromethoxy)phenyl]-N-(3-methyl-1,1-dioxo-thiolan-3-yl)-3-morpholino-indazole-5-carboxamide], with 375 nM; and `COc1ccc(-n2nc(NCCc3ccccc3)c3cc(C(=O)NCCCN(C)C)ccc32)cc1` [Example 52, N-(3-(dimethylamino)propyl)-1-(4-methoxyphenyl)-3-(phenethylamino)-1H-indazole-5-carboxamide], with 4320 nM; and `CC(C)(O)Cc1nn(-c2cc(OC(F)F)ccc2F)c2ncc(C(=O)NC3(C)CS(=O)(=O)C3)cc12` [Example 24, l-(5-(difluoromethoxy)-2-fluorophenyl)-3-(2-hydroxy-2-methylpropyl)-N-(3-methyl-1,1-dioxidothietan-3-yl)-1H-pyrazolo[3,4-b]pyridine-5-carboxamide], with 6.4 nM.
As for `CC1(NC(=O)c2cc(F)c3c(c2)c(C(C)(C)O)nn3-c2cccc(OC(F)F)c2)CS(=O)(=O)C1` [Example 37, l-(3-(difluoromethoxy)phenyl)-7-fluoro-3-(2-hydroxypropan-2-yl)-N-(3-methyl-1,1-dioxidothietan-3-yl)-1H-indazole-5-carboxamide], the figure is 15 nM.
On to `CC1(NC(=O)c2ccc3c(c2)c(C(O)C(F)F)nn3-c2cccc(OC(F)F)c2)CS(=O)(=O)C1` (racemic) [Example 31], for which it took 94 nM to reach half-maximal inhibition (IC50).
In the case of `CC(O)c1nn(-c2cccc(OC(F)F)c2)c2ccc(C(=O)N[C@@]3(C)CCS(=O)(=O)C3)cc12` (stereo partly drawn) [Example 34, 1-(3-(difluoromethoxy)phenyl)-3-(l-hydroxyethyl)-N-((S)-3-methyl-1,1-dioxidotetrahydrothiophen-3-yl)-1H-indazole-5-carboxamide], the IC50 came to 83 nM.
Consider `CC1(NC(=O)c2ccc3c(c2)c(NS(C)(=O)=O)nn3-c2cccc(OC(F)F)c2)CS(=O)(=O)C1` [Example 51], for which the IC50 was over 10000 nM.
The compound `CC1(NC(=O)c2cnc3c(c2)c(C(C)(C)O)nn3-c2cc(OC(F)F)ncc2F)CS(=O)(=O)C1` [Example 46, l-(2-(difluoromethoxy)-5-fluoropyridin-4-yl)-3-(2-hydroxypropan-2-yl)-N-(3-methyl-1,1-dioxidothietan-3-yl)-1H-pyrazolo[3,4-b]pyridine-5-carboxamide] returned an IC50 of 31 nM.
For `CC(C)c1nn(-c2cccc(OC(F)F)c2)c2ncc(C(=O)NC3(C)CS(=O)(=O)C3)cc12` [Example 12], half-maximal inhibition (IC50) was put at 9.3 nM.
As for `C[C@]1(NC(=O)c2ccc3c(c2)c(-c2ccc(F)cc2)cn3-c2ccccc2Cl)CCS(=O)(=O)C1` [Example 5, (S)-1-(2-chlorophenyl)-3-(4-fluorophenyl)-N-(3-methyl-1,1-dioxidotetrahydrothiophen-3-yl)-1H-indole-5-carboxamide], inhibition was half-maximal at 115 nM (IC50).
`Cc1ncc(OC(F)F)cc1-n1nc(CC(C)(C)O)c2cc(C(=O)NC3(C)CS(=O)(=O)C3)cnc21` [Example 25, l-(5-(difluoromethoxy)-2-methylpyridin-3-yl)-3-(2-hydroxy-2-methylpropyl)-N-(3-methyl-1,1-dioxidothietan-3-yl)-1H-pyrazolo[3,4-b]pyridine-5-carboxamide] had an IC50 of 705 nM.
Regarding `CC(C)Oc1nn(-c2cc(OC(F)F)ccc2F)c2ncc(C(=O)NC3(C)CS(=O)(=O)C3)cc12` [Example 55, 1-(5-(difluoromethoxy)-2-fluorophenyl)-3-isopropoxy-N-(3-methyl-1,1-dioxidothietan-3-yl)-1H-pyrazolo[3,4-b]pyridine-5-carboxamide], half-maximal inhibition (IC50) was put at 93 nM.
Compound `Cn1ccc(-c2nn(-c3cccc(OC(F)F)c3)c3ccc(C(=O)NC4(C)CS(=O)(=O)C4)cc23)n1` [Example 2, 1-(3-(difluoromethoxy)phenyl)-N-(3-methyl-1,1-dioxo-thietan-3-yl)-3-(l-methylpyrazol-3-yl)indazole-5-carboxamide] had an IC50 of 18 nM.
In turn, `CCc1nn(-c2cccc(OC(F)F)c2)c2ccc(C(=O)NC3(C)CS(=O)(=O)C3)cc12` [Example 14, l-(3-(difluoromethoxy)phenyl)-3-ethyl-N-(3-methyl-1,1-dioxo-thietan-3-yl)indazole-5-carboxamide] displayed an IC50 of 11 nM. Compared with the last compound, the IC50 is about 1.6-fold lower.
`CC(C)Nc1nn(-c2cccc(OC(F)F)c2)c2ccc(C(=O)NC3(C)CS(=O)(=O)C3)cc12` [Example 50] registered an IC50 of 41 nM.
Then `CC1(NC(=O)c2ccc3c(c2)c(C(O)C(F)(F)F)nn3-c2cccc(OC(F)F)c2)CS(=O)(=O)C1` (single isomer, unassigned) [Example 30a, 1-[3-(difluoromethoxy)phenyl]-N-(3-methyl-1,1-dioxo-thietan-3-yl)-3-(2,2,2-trifluoro-1-hydroxy-ethyl)indazole-5-carboxamide], with 84 nM.
`CC1(NC(=O)c2cnc3c(c2)c(C(C)(C)O)nn3-c2cncc(OC(F)F)c2)CS(=O)(=O)C1` [Example 47, 1-(5-(difluoromethoxy)pyridin-3-yl)-3-(2-hydroxypropan-2-yl)-N-(3-methyl-1,1-dioxidothietan-3-yl)-1H-pyrazolo[3,4-b]pyridine-5-carboxamide] had an IC50 of 91 nM.
The compound `CC1(NC(=O)c2ccc3c(c2)c(C(O)C2CC2)nn3-c2cccc(OC(F)F)c2)CS(=O)(=O)C1` (single isomer, unassigned) [Example 29a, 3-[cyclopropyl(hydroxy)methyl] - 1-[3-(difluoromethoxy)phenyl]-N-(3-methyl-1,1-dioxo-thietan-3-yl)indazole-5-carboxamide] displayed an IC50 of 5.1 nM.
As for `COCC(C)NC(=O)c1ccc2c(c1)c(-c1ccccc1Cl)cn2-c1ccc(F)cc1` (stereo not drawn) [Example 10, 3-(2-chlorophenyl)-1-(4-fluorophenyl)-N-(1-methoxypropan-2-yl)-1H-indole-5-carboxamide], the figure is 3510 nM; as for `CC(C)(O)c1nn(-c2cccc(OC(F)F)c2)c2ccc(C(=O)N[C@@]3(C)CCS(=O)(=O)C3)cc12` [Example 33, (S)-1-(3-(difluoromethoxy)phenyl)-3-(2-hydroxypropan-2-yl)-N-(3-methyl-1,1-dioxidotetrahydrothiophen-3-yl)-1H-indazole-5-carboxamide], 27 nM.
